Laboratory results: patent US10954252B1, “Inhibitors of human immunodeficiency virus replication” (ViiV HEALTHCARE UK (NO.5) LIMITED, priority 2017, dated 2021)

Experiments:
[1] = Compound cytotoxicity, XTT-based colorimetric assay; format: cell-based; details: human, uninfected MT2 cells
Summary of the method: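 CC50 from uninfected MT2 cells run under the antiviral-assay protocol without virus. Viability read on day 4 by XTT colorimetric assay.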

[2] = tested on: recombinant NL4-3 virus (nef section replaced with Renilla luciferase gene) in MT-2 cells; experiment: HIV cell culture assay (antiviral activity, luciferase readout); format: cell-based; details: Renilla, MT-2 cells infected for 4-5 days with recombinant NL4-3 luciferase virus
Summary of the method: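 NL4-3 reporter virus carrying Renilla luciferase in place of part of nef, produced in 293T cells, was used to infect MT-2 cells for 4-5 days with serial compound dilutions. Luciferase activity was read with a live-cell substrate; EC50 derived from the median effect equation.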

SMILES | CC50 at 4 days ([1]; Table 1a, day 4, XTT) [nM] | EC50 ([2]; NL43, Table 1a) [nM] | CC50 at 4 days ([1]; Table 1, day 4, XTT) [nM] | EC50 ([2]; NL43, Table 1) [nM]
Cn1nc(NS(C)(=O)=O)c2c(Cl)ccc(-n3c([C@H](Cc4cc(F)cc(F)c4)NC(=O)Cn4nc(C(F)F)c5c4C(F)(F)[C@@H]4C[C@H]54)nc4cc(Cl)cc(Cl)c4c3=O)c21 (mixture of isomers) [Example 178, N—((S)-1-(5,7-dichloro-3-(4-chloro-1-methyl-3-(methylsulfonamido)-1H-indazol-7-yl)-4-oxo-3,4-dihydroquinazolin-2-yl)-2-(3,5-difluorophenyl)ethyl)-2-((3bS,4aR)-3-(difluoromethyl)-5,5-difluoro-3b,4,4a,5-tetrahydro-1H-cyclopropa[3,4]cyclopenta[1,2-c]pyrazol-1-yl)acetamide] | > 1000 | 18.1 | – | –
CN(C)S(=O)(=O)c1ccc(-c2cc3[nH]ncc3nc2[C@H](Cc2cc(F)cc(F)c2)NC(=O)Cn2nc(C(F)F)c3c2C(F)(F)[C@@H]2C[C@H]32)cc1 [Example 26, 2-((3bS,4aR)-3-(difluoromethyl)-5,5-difluoro-3b,4,4a,5-tetrahydro-1H-cyclopropa[3,4]cyclopenta[1,2-c]pyrazol-1-yl)-N—((S)-2-(3,5-difluorophenyl)-1-(6-(4-(N,N-dimethylsulfamoyl)phenyl)-1H-pyrazolo[4,3-b]pyridin-5-yl)ethyl)acetamide] | 5010 | 18.7 | – | –
CSc1nc2nc(C(Cc3cc(F)cc(F)c3)NC(=O)Cn3nc(C(F)F)c4c3C(F)(F)[C@@H]3C[C@H]43)c(-c3ccc(Cl)c4c(NS(C)(=O)=O)nn(C)c34)cc2s1 (stereo partly drawn) [Example 193, N-(1-(6-(4-chloro-1-methyl-3-(methylsulfonamido)-1H-indazol-7-yl)-2-(methylthio)thiazolo[4,5-b]pyridin-5-yl)-2-(3,5-difluorophenyl)ethyl)-2-((3bS,4aR)-3-(difluoromethyl)-5,5-difluoro-3b,4,4a,5-tetrahydro-1H-cyclopropa[3,4]cyclopenta[1,2-c]pyrazol-1-yl)acetamide] | > 10000 | 0.18 | – | –
O=C(Cn1nc(C(F)F)c2c1C(F)(F)[C@@H]1C[C@H]21)N[C@@H](Cc1cc(F)cc(F)c1)c1nc2cn[nH]c2cc1-c1cccc2c1CNC2=O [Example 10.13, 2-((3bS,4aR)-3-(difluoromethyl)-5,5-difluoro-3b,4,4a,5-tetrahydro-1H-cyclopropa[3,4]cyclopenta[1,2-c]pyrazol-1-yl)-N—((S)-2-(3,5-difluorophenyl)-1-(6-(1-oxoisoindolin-4-yl)-1H-pyrazolo[4,3-b]pyridin-5-yl)ethyl)acetamide] | – | – | > 10000 | 12
Cn1nc(NS(C)(=O)=O)c2c(Cl)ccc(-n3c([C@H](Cc4cc(F)cc(F)c4)NC(=O)Cc4n[nH]c5ccc(O)cc45)nc4ncccc4c3=O)c21 (single isomer, unassigned) [Example 49.1] | > 1000 | 93 | – | –
CC(C)c1ccc(-c2cc3[nH]ccc3nc2[C@H](Cc2cc(F)cc(F)c2)NC(=O)Cn2nc(C(F)F)c3c2C(F)(F)[C@@H]2C[C@H]32)cn1 [Example 81, 2-((3bS,4aR)-3-(difluoromethyl)-5,5-difluoro-3b,4,4a,5-tetrahydro-1H-cyclopropa[3,4]cyclopenta[1,2-c]pyrazol-1-yl)-N—((S)-2-(3,5-difluorophenyl)-1-(6-(6-isopropylpyridin-3-yl)-1H-pyrrolo[3,2-b]pyridin-5-yl)ethyl)acetamide] | 10000 | 13.6 | – | –
Cn1nc(NS(C)(=O)=O)c2c(Cl)ccc(-c3nc4ccccc4nc3[C@@H](Cc3cc(F)cc(F)c3)NC(=O)Cn3nc(C(F)F)c4c3C(F)(F)[C@@H]3C[C@H]43)c21 [Example 155, N—((R)-1-(3-(4-chloro-1-methyl-3-(methylsulfonamido)-1H-indazol-7-yl)quinoxalin-2-yl)-2-(3,5-difluorophenyl)ethyl)-2-((3bS,4aR)-3-(difluoromethyl)-5,5-difluoro-3b,4,4a,5-tetrahydro-1H-cyclopropa[3,4]cyclopenta[1,2-c]pyrazol-1-yl)acetamide] | > 10000 | 35.8 | – | –
